According to patent publication US20180193336A1, “SPRAY DRY FORMULATIONS” (Pulmokine, Inc., priority 2013, published 2018):
Where “and” joins values, the source holds several entries; their conditions need not be identical. Equal values may be shown once. Read-outs that look alike come from different tables or passages of the source.

Key:
[1] = test system: PDGFAA stimulated AKT phosphorylation; experiment: In cell Western, PDGFAA stimulated AKT phosphorylation in human fetal lung fibroblasts; type: cell-based; settings: for IC50: Fibroblast
Description: HLFs were maintained in subculture at no more than 6 passages in DMEM with 5% FBS and 4 mM Glutamax at 37° C., 5% CO2. HLFs were plated and grown to 70-80% confluence in 96 well plates then serum-starved for 48 hours. […] Antibodies were detected using IRDye 680LT goat anti-mouse IgG and IRDye 800 W goat α-rabbit IgG conjugated antibodies. After washing, the signal was quantified using an Odyssey Infrared Imaging System (LI-COR). Phosphoprotein signal (800 nm) was normalized to total protein signal (700 nm) acquired from each well and experimental duplicates on same plate were averaged and reported.

[2] = test system: rat MCT model; experiment: Efficacy in rat MCT model, PK10453 dose response; type: in vivo
Description: Male Sprague Dawley rats received MCT 60 mg/kg IPMCT, and after 3 weeks, PK10453 (Structure 2) or vehicle control were administered by inhalation. Four groups were studied: vehicle control (4 min exposure) and three treatment groups of PK10453 (Structure 2) with exposure times 2 min (D2), 4 min (D4), or 8 min (D8) three times a day. These regimens were administered for two weeks. The vehicle consisted of aerosolized 1M tosylic acid neutralized with ammonia vapor as described above. The pH of a solution prepared by dissolving captured aerosol particles in water was measured for every dose and was consistently in the range of 5.5-6.0. At the end of the study, the RV systolic pressure was measured, and the heart chambers dissected and weighed.

[3] = test system: rat MCT+PN model; experiment: RV pressure, PV loops and RV hypertrophy in rat MCT+PN model; type: in vivo; settings: for RV systolic pressure: 14 days
Description: In a separate cohort of animals, the MCT+PN model was developed as described above, and PK10453 (Structure 2) was then administered for 4 or 8 min three times a day to the drug treated group. The vehicle control group underwent 4 min exposures three times a day. Pressure Volume (PV) loops were obtained with an admittance system (Scisense, Inc.) after 14 days of treatment, while rats were under general anesthesia with isoflurane and 100% FiO2. Also, or in the alternative, RV pressures were obtained in each group after 14 days of treatment. In a subset of each group, pressure Volume (PV) loops were obtained with an admittance system (high fidelity catheter FTE1918B, Scisense, Inc.) after 14 days of treatment. After induction of general anesthesia and intubation via tracheostomy, the rats were placed on a pressure controlled ventilator (TOPOVENT). General anesthesia consisted of isoflurane and 100% F1O2 with peak inspiratory pressure set at 18 cm, and PEEP 5 cm H2O. A left thoracotomy was performed with admittance catheter in the RV via the RV outflow tract.
At the end of the study, the heart and lungs were removed from ventilated animals under general anesthesia. Heparinized saline was infused under pressure through the main pulmonary artery. The right upper lobe was immediately tied off and placed in liquid nitrogen for Western blot and NanoPro 100 assay analysis. The heart was removed, and the RV free wall, interventricular septum and LV free wall dissected and weighed. Buffered formalin (10%) was infused under pressure both through the pulmonary artery and the trachea. Morphometric analysis was performed on H&E stained formalin fixed tissue sectioned at 8 μm. The media area and lumen area of pulmonary arterioles were measured with Image J software by a technician blinded to treatment group. Measurements were made on 20 pulmonary arterioles per section. The ratio of the lumen area to the total media area was determined. This ratio normalizes the variation in total pulmonary arteriole area. In addition, occlusive analysis was performed in the monocrotaline plus pneumonectomy study (specifically efficacy study 5) according to the method of Homma et al., “Involvement of RhoA/Rho kinase signaling in protection against monocrotaline-induced pulmonary hypertension in pneumonectomized rats by dehydroepiandrosterone.” Am J Physiol Lung Cell Mol Physiol. Vol. 295:L71-8 (2008). Briefly, pre-capillary arterioles were assigned grade 0 for no evidence of neointimal lesions, grade 1 for less than 50% luminal occlusion, and grade 2 for greater than 50% occlusion. Masson Trichrome stains were performed on lung sections from the MCT+PN model. […]

[4] = test system: phosphorylated AKT, STAT3 and ERK1/2 in lung extracts; experiment: NanoPro immunoassay of lung extracts, rat MCT+PN model; type: in vivo
Description: Relative differences in phosphorylated ERK1/2 and STAT isoforms were measured with a anoProlOO® immunoassay system (Protein Simple/Cell Biosciences, CA). See Fan et al., “Nanofluidic proteomic assay for serial analysis of oncoprotein activation in clinical specimens.” Nat Med 15:566-571 (2009).

[5] = Systemic blood pressure study in ambulatory MCT treated rats; type: in vivo, rat
Description: The effect of PK10453 (Structure 2) on systemic BP was studied in ambulatory MCT treated rats with DSI PAC40 transmitters implanted in the descending aorta. […] Blood pressure was recorded before each morning dose.

[6] = test system: rat monocrotaline plus pneumonectomy model; experiment: Trichrome stain of lung sections, rat monocrotaline plus pneumonectomy model; type: in vivo; settings: inhaled; compared to vehicle treated animal; FIG. 42
From the text: At the end of the study, the heart and lungs were removed from ventilated animals under general anesthesia. Heparinized saline was infused under pressure through the main pulmonary artery. The right upper lobe was immediately tied off and placed in liquid nitrogen for Western blot and NanoPro 100 assay analysis. The heart was removed, and the RV free wall, interventricular septum and LV free wall dissected and weighed. Buffered formalin (10%) was infused under pressure both through the pulmonary artery and the trachea. Morphometric analysis was performed on H&E stained formalin fixed tissue sectioned at 8 μm. The media area and lumen area of pulmonary arterioles were measured with Image J software by a technician blinded to treatment group. Measurements were made on 20 pulmonary arterioles per section. The ratio of the lumen area to the total media area was determined. This ratio normalizes the variation in total pulmonary arteriole area. In addition, occlusive analysis was performed in the monocrotaline plus pneumonectomy study (specifically efficacy study 5) according to the method of Homma et al., “Involvement of RhoA/Rho kinase signaling in protection against monocrotaline-induced pulmonary hypertension in pneumonectomized rats by dehydroepiandrosterone.” Am J Physiol Lung Cell Mol Physiol. Vol. 295:L71-8 (2008). […]

SMILES: COc1cc(-c2cncc(N[C@@H](C)c3cccc(NC(=O)c4cncc(C)c4)c3)n2)ccc1O [PK10453, (S)—N-(3-(1-((6-(4-hydroxy-β-methoxyphenyl)pyrazin-2yl)amino)ethyl)phenyl)-5-methylnicotinamide]
- IC50 for PDGFAA stimulated phosphorylation of AKT, PK10453 compared with imatinib [1]: not significantly different
- IC50 ([1]; legend of FIG. 2 PANEL A, read-out: IC50 for PDGFAA stimulation of pAKT(S473)): 300 to 600 nM
- IC50 ([1]; legend of FIG. 2 PANEL B, read-out: IC50 for PDGFAA stimulation of pAKT(T308)): 300 to 600 nM
- degree of RV hypertrophy, ratio (RV+IVS)/LV weight ([2]; rat MCT): significant reduction
- decrease of RV systolic pressure ([2]; rat MCT model, discussion): 50%
- reduction in RVSP compared to the vehicle treated group ([2]; rat MCT, D4): 44%
- reduction in RVSP compared to the vehicle treated group ([2]; rat MCT, D8): 54%
- (RV+IVS)/LV ratio ([3]; D4): 0.62±0.04
- RV systolic pressure ([3]; D4, 4 min three times a day): 40.4±2.7 mm Hg and 40.4+2.7 mm Hg
- (RV+IVS)/LV ratio ([3]; D8): 0.68±0.05
- RV systolic pressure ([3]; D8, 8 min three times a day): 43±3.0 mm Hg and 43.0+3.0 mm Hg
- pAKT(Ser473)/AKT ratio in lung extracts [4]: significant reduction
- pERK1/ERK1 in lung homogenates ([4]; D4 and D8 compared to vehicle): significant reductions
- pSTAT3/STAT3 ratio in lung ([4]; D4 and D8 compared to vehicle): significant reduction
- ppERK1/ERK1 in lung homogenates ([4]; D4 and D8 compared to vehicle): significant reductions
- pAKT(Thr308)/AKT ratio in lung extracts ([4]; V, D4, D8): not significantly different
- systolic BP ([5]; MCT rats, day seven of treatment, 4 min exposure 3×/d): 131±10 mmHg
- effect on systemic BP ([5]; rat MCT model): did not have an adverse effect
- collagen deposition in lung sections (trichrome stain) [6]: less collagen deposition
